Results from US9884043B2, “RORgammaT inhibitors” (Merck Sharp & Dohme Corp., priority 2011, dated 2018).

Each compound was assayed against T1, HIS-tagged RORγ-LBD (Homo sapiens, UniProt P51449) (assay: TR-FRET assay (Protocol B), RORγ-LBD lysate / biotinylated SRC1-2 LXXLL peptide). Settings: unpurified RORγ-LBD lysate ~10 nM, SRC1-2 peptide 450 nM.
T1 construct: HIS-tagged RORγ-LBD was recombinantly expressed in SF9 cells using a baculovirus expression system; made in house; host or cells: SF9 cells, baculovirus; crude lysate used
T1 sequence (P51449 269-508 limits assumed): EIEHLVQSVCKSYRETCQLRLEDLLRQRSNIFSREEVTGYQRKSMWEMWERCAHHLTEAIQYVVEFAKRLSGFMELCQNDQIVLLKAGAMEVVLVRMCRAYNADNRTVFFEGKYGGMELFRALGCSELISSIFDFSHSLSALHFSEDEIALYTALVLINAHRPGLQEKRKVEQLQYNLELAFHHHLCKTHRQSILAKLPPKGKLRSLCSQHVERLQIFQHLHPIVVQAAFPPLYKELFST
Type: biochemical
From the text: Activation of RORgammaT activity can be measured using e.g. biochemical TR-FRET assay. In such an assay, interaction of cofactor-derived peptides with human RORgammaT-Ligand Binding Domain (LBD) can be measured.
To identify novel antagonists of RORgammaT, an assay was developed which employs the interaction of RORgammaT with its co-activator peptide SRC1_2. […] The assay was run following three slightly different protocols, i.e. Protocol A, Protocol B, and Protocol C, which are described below.
TR-Fret Assay (Protocol B)
HIS-tagged RORγ-LBD was recombinantly expressed in SF9 cells using a baculovirus expression system. The protein was not purified. Cells were lysed and the lysate was used as a source for RORγ-LBD for the assay. A 1:80 dilution of RORγ-LBD lysate in assay buffer (25 mM HEPES pH 7.0, 100 mM NaCl, 0.01% Tween, 0.1% BSA) was prepared and 5 μL was added to each well (RORγ-LBD final concentration ˜10 nM). Control wells received lysate from SF9 cells not expressing RORγ-LBD.
Compounds to be tested were diluted to 100× final test concentration in DMSO and further diluted to 4× final test concentration using assay buffer to provide the test compound mixture. An aliquot (5 μL) of the test compound mixture was added to each well.

Question: For `O=C(O)c1cccc(-c2nn(C(=O)c3c(Cl)cccc3C(F)(F)F)c3cccc(F)c23)c1` [Example 24E, 3-(1-(2-chloro-6-(trifluoromethyl)-benzoyl)-4-fluoro-1H-indazol-3-yl)benzoic acid], which IC50 is on record?
Answer: 0.5 to 10 µM

Question: For `O=C(O)Cc1cccc(-c2nn(C(=O)c3c(Cl)cccc3C(F)(F)F)c3cccc(F)c23)c1` [Example 24F, 2-(3-(1-(2-chloro-6-(trifluoromethyl)-benzoyl)-4-fluoro-1H-indazol-3-yl)phenyl)acetic acid], which IC50 is on record?
Answer: 0.5 to 10 µM

Question: With `O=C(O)Cc1ccc(-c2nn(C(=O)c3c(Cl)cccc3C(F)(F)F)c3cccc(F)c23)cc1` [Example 24G, 2-(4-(1-(2-chloro-6-(trifluoromethyl)-benzoyl)-4-fluoro-1H-indazol-3-yl)phenyl)acetic acid] as the compound, how does the IC50 read?
Answer: 0.5 to 10 µM

Question: `NC(=O)c1ccc(-c2nn(C(=O)c3c(Cl)cccc3C(F)(F)F)c3cccc(F)c23)cc1` [Example 24J, 4-(1-(2-chloro-6-(trifluoromethyl)-benzoyl)-4-fluoro-1H-indazol-3-yl)benzamide] was tested. Which IC50 did it give?
Answer: 0.05 to 0.5 µM

Question: With `Cc1cc(C(=O)O)c(F)cc1-c1nn(C(=O)c2c(Cl)cccc2C(F)(F)F)c2cccc(F)c12` [Example 24K, 4-(1-(2-chloro-6-(trifluoromethyl)-benzoyl)-4-fluoro-1H-indazol-3-yl)-2-fluoro-5-methylbenzoic acid] as the compound, how does the IC50 read?
Answer: < 0.05 µM

Question: With `Cc1cc(C(=O)O)ccc1-c1nn(C(=O)c2c(Cl)cccc2C(F)(F)F)c2cccc(F)c12` [Example 24L, 4-(1-(2-chloro-6-(trifluoromethyl)-benzoyl)-4-fluoro-1H-indazol-3-yl)-3-methylbenzoic acid] as the compound, how does the IC50 read?
Answer: < 0.05 µM

Question: With `Cc1cc(-c2nn(C(=O)c3c(Cl)cccc3C(F)(F)F)c3cccc(F)c23)ccc1C(=O)O` [Example 24P, 4-(1-(2-chloro-6-(trifluoromethyl)-benzoyl)-4-fluoro-1H-indazol-3-yl)-2-methylbenzoic acid] as the compound, how does the IC50 read?
Answer: < 0.05 µM

Question: Which IC50 does the source give for `COc1cc(C(=O)O)ccc1-c1nn(C(=O)c2c(Cl)cccc2C(F)(F)F)c2cccc(F)c12` [Example 24Q, 4-(1-(2-chloro-6-(trifluoromethyl)-benzoyl)-4-fluoro-1H-indazol-3-yl)-3-methoxybenzoic acid] here?
Answer: 0.05 to 0.5 µM

Question: With `O=C(O)c1c(F)cc(-c2nn(C(=O)c3c(Cl)cccc3C(F)(F)F)c3cccc(F)c23)cc1F` [Example 24R, 4-(1-(2-chloro-6-(trifluoromethyl)-benzoyl)-4-fluoro-1H-indazol-3-yl)-2,6-difluorobenzoic acid] as the compound, how does the IC50 read?
Answer: < 0.05 µM

Question: With `CC(C)c1cc(-c2nn(C(=O)c3c(Cl)cccc3C(F)(F)F)c3cccc(F)c23)ccc1C(=O)O` [Example 24S, 4-(1-(2-chloro-6-(trifluoromethyl)-benzoyl)-4-fluoro-1H-indazol-3-yl)-2-isopropylbenzoic acid] as the compound, how does the IC50 read?
Answer: 0.5 to 10 µM

Question: `COc1cc(C(=O)O)cc(OC)c1-c1nn(C(=O)c2c(Cl)cccc2C(F)(F)F)c2cccc(F)c12` [Example 24T, 4-(1-(2-chloro-6-(trifluoromethyl)-benzoyl)-4-fluoro-1H-indazol-3-yl)-3,5-dimethoxybenzoic acid] was tested. Which IC50 did it give?
Answer: > 10 µM

Question: How did the IC50 turn out when `N#Cc1cc(-c2nn(C(=O)c3c(Cl)cccc3C(F)(F)F)c3cccc(F)c23)ccc1C(=O)O` [Example 24U, 4-(1-(2-chloro-6-(trifluoromethyl)-benzoyl)-4-fluoro-1H-indazol-3-yl)-2-cyano benzoic acid] was run?
Answer: < 0.05 µM

Question: `O=C(O)c1ccc(-c2nn(C(=O)c3c(Cl)cccc3C(F)(F)F)c3cccc(F)c23)c(F)c1F` [Example 24V, 4-(1-(2-chloro-6-(trifluoromethyl)-benzoyl)-4-fluoro-1H-indazol-3-yl)-2,3-difluorobenzoic acid] was tested. Which IC50 did it give?
Answer: < 0.05 µM

Question: With `O=C(O)c1cc(F)c(-c2nn(C(=O)c3c(Cl)cccc3C(F)(F)F)c3cccc(F)c23)cc1F` [Example 24W, 4-(1-(2-chloro-6-(trifluoromethyl)-benzoyl)-4-fluoro-1H-indazol-3-yl)-2,5-difluorobenzoic acid] as the compound, how does the IC50 read?
Answer: < 0.05 µM
